One may read the pEC50 as −log10 of the EC50, conventionally taken in molar units.

Results on 10 compounds are retold here after patent publication US20240043386A1, “Modulators of the Cystic Fibrosis Transmembrane Conductance Regulator Protein and Methods of Use” (AbbVie Global Enterprises Ltd., priority 2021, published 2024).

The target in test [1] is T1, F508del/F508del CFTR (Homo sapiens, UniProt P13569, DEL508-508).
T1 construct: cells isolated from CF patients with the homozygous mutation; endogenous in cells; host or cells: primary human bronchial epithelial (hBE) cells from CF patients homozygous for F508del
The test is described as follows: Trans-Epithelial Current Clamp (TECC) assay using primary human bronchial epithelial cells. The class given is cell-based. To be noted: for Emax (% Dual): maximum percent activity relative to positive control (co-corrector 0.15 μM + potentiator 0.45 μM = 100%), primary hBE cells F508del/F508del; for pEC50: primary hBE cells homozygous F508del/F508del, test C2 corrector with co-corrector and potentiator, 18-24 hours at 37° C., equivalent CFTR current (IEQ)/AUC. A digest of the protocol: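 Readout is the equivalent CFTR current (IEQ, from offset-corrected VT and RT) plus AUC from forskolin peak to bumetanide addition, recorded on TECC-24 at 36.5° C. Beforehand, homozygous F508del hBE cultures received correctors with co-corrector and potentiator basolaterally for 18-24 h at 37° C.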

Test [2] has as its target T2, F508delCFTR (Homo sapiens, UniProt P13569, DEL508-508).
T2 construct: expressed in transfected cells; host or cells: CFBE41o- human lung-derived epithelial cell line, doxycycline-inducible expression
The test is described as follows: Cell Surface Expression-Horse Radish Peroxidase (CSE-HRP) assay in CFBE41o-F508delCFTR-HRP cells. It counts as cell-based. The following applies: for pEC50: CFBE41o-F508delCFTR-HRP cells, 18-24 hours at 33° C., luminescence. The gist of the method: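 Test compounds were tested alone or alongside a co-corrector (2 μM), 8-point 3-fold series from 20 or 30 μM, for 18–24 h at 33 °C on doxycycline-induced CFBE41o-F508delCFTR-HRP cells. After washing, luminol luminescence reported cell-surface HRP-tagged CFTR, normalized to the positive control (% activity). EC50 was fitted with a variable Hill slope sigmoid from triplicate plates; Z′ >0.5 required.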

Setting [3] is: with co-corrector (2 μM), read-out: EC50 (with co-corrector).
Setting [4] is: without co-corrector, read-out: EC50 (without co-corrector).
Setting [5] is: without co-corrector, normalized to on-plate positive control corrector (2 μM).

pEC50: −log10 of the molar value. Like-named read-outs stand apart in the source and are kept apart here.

T2 sequence (P13569 with tags, fused parts or gaps DEL508-508): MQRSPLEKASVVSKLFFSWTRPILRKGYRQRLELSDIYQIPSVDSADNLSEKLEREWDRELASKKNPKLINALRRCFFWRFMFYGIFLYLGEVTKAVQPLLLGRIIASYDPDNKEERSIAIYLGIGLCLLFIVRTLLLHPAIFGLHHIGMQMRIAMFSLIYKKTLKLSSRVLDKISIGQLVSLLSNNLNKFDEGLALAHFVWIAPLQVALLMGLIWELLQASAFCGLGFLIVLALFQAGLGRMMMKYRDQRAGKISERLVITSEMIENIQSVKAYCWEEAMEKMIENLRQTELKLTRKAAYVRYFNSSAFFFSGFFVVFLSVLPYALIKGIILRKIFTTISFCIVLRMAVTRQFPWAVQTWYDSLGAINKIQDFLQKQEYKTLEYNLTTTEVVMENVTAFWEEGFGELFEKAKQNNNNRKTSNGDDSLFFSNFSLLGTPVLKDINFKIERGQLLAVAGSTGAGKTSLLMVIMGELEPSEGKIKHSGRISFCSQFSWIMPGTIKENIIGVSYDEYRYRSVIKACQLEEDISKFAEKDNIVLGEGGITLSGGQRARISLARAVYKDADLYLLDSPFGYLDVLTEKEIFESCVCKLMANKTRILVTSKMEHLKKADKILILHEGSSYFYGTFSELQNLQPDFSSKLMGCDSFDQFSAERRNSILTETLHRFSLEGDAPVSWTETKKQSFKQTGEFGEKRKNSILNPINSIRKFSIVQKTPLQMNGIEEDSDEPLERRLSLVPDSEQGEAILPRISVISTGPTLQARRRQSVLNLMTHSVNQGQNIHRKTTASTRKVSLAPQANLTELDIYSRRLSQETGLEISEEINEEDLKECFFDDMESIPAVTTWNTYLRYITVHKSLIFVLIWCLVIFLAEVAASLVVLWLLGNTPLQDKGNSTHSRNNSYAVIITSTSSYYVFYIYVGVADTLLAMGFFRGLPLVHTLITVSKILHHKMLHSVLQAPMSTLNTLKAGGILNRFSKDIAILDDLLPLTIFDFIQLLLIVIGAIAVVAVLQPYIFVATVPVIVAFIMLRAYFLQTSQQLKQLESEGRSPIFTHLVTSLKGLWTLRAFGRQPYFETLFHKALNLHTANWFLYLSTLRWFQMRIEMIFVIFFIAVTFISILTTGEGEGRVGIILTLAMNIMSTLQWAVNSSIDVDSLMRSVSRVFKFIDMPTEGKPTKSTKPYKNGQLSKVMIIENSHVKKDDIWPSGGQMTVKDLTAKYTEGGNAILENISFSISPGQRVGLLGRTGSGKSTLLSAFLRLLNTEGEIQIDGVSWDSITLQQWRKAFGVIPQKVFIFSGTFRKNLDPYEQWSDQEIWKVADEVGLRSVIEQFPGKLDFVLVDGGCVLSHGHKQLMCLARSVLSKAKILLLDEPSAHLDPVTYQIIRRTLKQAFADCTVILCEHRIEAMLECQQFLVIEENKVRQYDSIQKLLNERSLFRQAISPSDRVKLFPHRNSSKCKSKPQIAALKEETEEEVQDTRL
T1 sequence (P13569 with tags, fused parts or gaps DEL508-508): as above

In the case of `COc1ccc(C)cc1[C@]1(C(=O)NS(=O)(=O)c2cccc3nc(C)ccc23)C[C@@H]1c1cnc(C)cn1` (racemic) [Example 89, rac-(1r,2r)-1-(2-methoxy-5-methylphenyl)-2-(5-methylpyrazin-2-yl)-N-(2-methylquinoline-5-sulfonyl)cyclopropane-1-carboxamide], the “Emax (% Dual)” value in test [1] is 322 % Dual. In addition, the pEC50 in test [1] was 6.85; in test [2] (setting [3]), 5.90; in test [2] (setting [4]) it was 5.65. For the same compound, the “Maximum % activity (with co-corrector)” value in test [2] (with co-corrector (2 μM), normalized to on-plate positive control corrector (2 μM)) came out at 935%. The “Maximum % activity (without co-corrector)” value in test [2] (setting [5]) worked out at 447%.

As for `COc1nccc([C@@H]2C[C@]2(C(=O)NS(=O)(=O)c2cccc3nc(C)ccc23)c2cc(C)ccc2OC)n1` (racemic) [Example 95, rac-(1r,2r)-1-(2-methoxy-5-methylphenyl)-2-(2-methoxypyrimidin-4-yl)-N-(2-methylquinoline-5-sulfonyl)cyclopropane-1-carboxamide], the “Emax (% Dual)” value in test [1] is 209 % Dual. In addition, the negative-log EC50 (pEC50) was 7.90 in test [1], 6.07 in test [2] (setting [3]) and 5.74 in test [2] (setting [4]). In addition, in test [2] (setting [5]), the “Maximum % activity (without co-corrector)” value was 749%.

As for `COc1ccc(C)cc1[C@@]1(C(=O)NS(=O)(=O)c2cccc3nc(C)ccc23)C[C@H]1c1ccccc1` (single isomer, unassigned) [Example 2], the “Emax (% Dual)” value in test [1] is 250 % Dual. Moreover, the negative logarithm of the EC50 (pEC50) is 7.89 in test [1], 6.30 in test [2] (setting [3]) and 6.20 in test [2] (setting [4]). Moreover, the “Maximum % activity (without co-corrector)” value in test [2] (setting [5]) was found to be 523%.

With `COc1ccc(C)cc1[C@]1(C(=O)NS(=O)(=O)c2cccc3nc(C)ccc23)C[C@@H]1c1ccccc1` (single isomer, unassigned) [Example 3], in test [1], the “Emax (% Dual)” value is on record as 360 % Dual. The negative logarithm of the EC50 (pEC50) in test [1] was 9.00; in test [2] (setting [3]), 6.00; in test [2] (setting [4]), 5.61.

Turning to `COc1ccc(C)cc1[C@@]1(C(=O)NS(=O)(=O)c2cccc3nc(C)ccc23)C[C@H]1c1ccc(C)cc1` (single isomer, unassigned) [Example 6], in test [1], the “Emax (% Dual)” value worked out at 378 % Dual. Moreover, the values for the negative-log EC50 (pEC50) in test [1], in test [2] (setting [3]) and in test [2] (setting [4]) were 8.28, 6.69 and 6.73, respectively. Moreover, the “Maximum % activity (without co-corrector)” value in test [2] (setting [5]) is 982%.

With `COc1ccc(C)cc1[C@]1(C(=O)NS(=O)(=O)c2cccc3nc(C)ccc23)C[C@@H]1c1ccc(C)cc1` (single isomer, unassigned) [Example 7], the “Emax (% Dual)” value in test [1] is given as 487 % Dual. Besides, the pEC50 in test [1] was 9.10; in test [2] (setting [3]), 6.03; in test [2] (setting [4]), 5.84.

As for `COc1ccc([C@@H]2C[C@]2(C(=O)NS(=O)(=O)c2cccc3nc(C)ccc23)c2cc(C)ccc2OC)cc1` (single isomer, unassigned) [Example 16], the “Emax (% Dual)” value in test [1] is on record as 308 % Dual. The values for the pEC50 in test [1], in test [2] (setting [3]) and in test [2] (setting [4]) were 8.08, 6.41 and 6.48, respectively. Further, the “Maximum % activity (without co-corrector)” value in test [2] (without co-corrector, normalized to on-plate positive control corrector (2 μM), 2 µM) turned out to be 784%.

With `COc1ccc([C@@H]2C[C@]2(C(=O)NS(=O)(=O)c2cccc3nc(C)ccc23)c2cc(C)ccc2OC)cc1` (single isomer, unassigned) [Example 17], in test [1], the “Emax (% Dual)” value stood at 296 % Dual and the pEC50 is 9.18. The pEC50 in test [2] (setting [4]) was 5.62.

For `COc1ccc(C)cc1[C@]1(C(=O)NS(=O)(=O)c2cccc3nc(C)ccc23)C[C@@H]1c1ccc(C(F)(F)F)cc1` (single isomer, unassigned) [Example 18], the “Emax (% Dual)” value in test [1] stood at 270 % Dual. The pEC50 in test [1] is 8.89; in test [2] (setting [4]) it was 6.70.

Turning to `COc1ccc(C)cc1[C@@]1(C(=O)NS(=O)(=O)c2cccc3nc(C)ccc23)C[C@H]1c1ccc(C(F)(F)F)cc1` (single isomer, unassigned) [Example 19], the “Emax (% Dual)” value in test [1] is on record as 215 % Dual. Besides, the pEC50 in test [1] is 8.02; in test [2] (setting [3]) it was 6.23; in test [2] (setting [4]), 6.00.
